In the NIST ThermoML archive (doi:10.1021/je0501078):
± gives the expanded uncertainty stated by the source.

Assays:
[1] = Crystal
[2] = Molar enthalpy of transition or fusion; conditions: Crystal
[3] = molar heat capacity at saturation pressure; conditions: Crystal

O=C1CCCCC1C1(O)CCCCC1 (stereo not drawn) [1'-hydroxy-[1,1'-bicyclohexyl]-2-one]
mass density ([1]; 292 K, 101.33 kPa, Pycnometric method): 1140 ± 20 kg/m3
Triple point temperature ([1]; Adiabatic calorimetry): 306.75 ± 0.05 K
Triple point temperature ([1]; DSC): 306.9 ± 0.8 K
Molar enthalpy of transition or fusion ([2]; Adiabatic calorimetry): 4.974 ± 0.00813 kcal/mol
Molar enthalpy of transition or fusion ([2]; DSC): 4.95 ± 0.148 kcal/mol
molar heat capacity ([3]; 5.16 K): 0.533 ± 0.046 J/K/mol
molar heat capacity ([3]; 5.41 K): 0.6159 ± 0.049 J/K/mol
molar heat capacity ([3]; 5.68 K): 0.7141 ± 0.051 J/K/mol
molar heat capacity ([3]; 5.97 K): 0.8182 ± 0.054 J/K/mol
molar heat capacity ([3]; 6.29 K): 0.9686 ± 0.057 J/K/mol
molar heat capacity ([3]; 6.62 K): 1.137 ± 0.062 J/K/mol
molar heat capacity ([3]; 6.94 K): 1.337 ± 0.067 J/K/mol
molar heat capacity ([3]; 7.27 K): 1.564 ± 0.073 J/K/mol
molar heat capacity ([3]; 7.69 K): 1.849 ± 0.08 J/K/mol
molar heat capacity ([3]; 8.09 K): 2.166 ± 0.087 J/K/mol
molar heat capacity ([3]; 8.51 K): 2.524 ± 0.096 J/K/mol
molar heat capacity ([3]; 8.97 K): 2.903 ± 0.1 J/K/mol
molar heat capacity ([3]; 9.4 K): 3.307 ± 0.11 J/K/mol
molar heat capacity ([3]; 9.86 K): 3.764 ± 0.12 J/K/mol
molar heat capacity ([3]; 10.32 K): 4.247 ± 0.14 J/K/mol
molar heat capacity ([3]; 10.8 K): 4.745 ± 0.14 J/K/mol
molar heat capacity ([3]; 11.34 K): 5.386 ± 0.16 J/K/mol
molar heat capacity ([3]; 11.91 K): 6.078 ± 0.17 J/K/mol
molar heat capacity ([3]; 12.5 K): 6.783 ± 0.18 J/K/mol
molar heat capacity ([3]; 13.09 K): 7.518 ± 0.2 J/K/mol
molar heat capacity ([3]; 13.65 K): 8.27 ± 0.21 J/K/mol
molar heat capacity ([3]; 14.26 K): 9.088 ± 0.22 J/K/mol
molar heat capacity ([3]; 14.87 K): 9.894 ± 0.24 J/K/mol
molar heat capacity ([3]; 15.47 K): 10.71 ± 0.25 J/K/mol
molar heat capacity ([3]; 16.12 K): 11.66 ± 0.27 J/K/mol
molar heat capacity ([3]; 16.79 K): 12.66 ± 0.28 J/K/mol
molar heat capacity ([3]; 17.47 K): 13.66 ± 0.29 J/K/mol
molar heat capacity ([3]; 18.17 K): 14.72 ± 0.31 J/K/mol
molar heat capacity ([3]; 18.86 K): 15.8 ± 0.32 J/K/mol
molar heat capacity ([3]; 19.61 K): 16.87 ± 0.33 J/K/mol
molar heat capacity ([3]; 20.52 K): 18.24 ± 0.34 J/K/mol
molar heat capacity ([3]; 21.52 K): 19.81 ± 0.36 J/K/mol
molar heat capacity ([3]; 22.54 K): 21.36 ± 0.37 J/K/mol
molar heat capacity ([3]; 23.56 K): 22.97 ± 0.37 J/K/mol
molar heat capacity ([3]; 24.68 K): 24.67 ± 0.38 J/K/mol
molar heat capacity ([3]; 25.89 K): 26.58 ± 0.39 J/K/mol
molar heat capacity ([3]; 27.12 K): 28.34 ± 0.38 J/K/mol
molar heat capacity ([3]; 28.37 K): 30.15 ± 0.38 J/K/mol
molar heat capacity ([3]; 29.78 K): 32.21 ± 0.37 J/K/mol
molar heat capacity ([3]; 31.31 K): 34.26 ± 0.34 J/K/mol
molar heat capacity ([3]; 32.81 K): 36.25 ± 0.35 J/K/mol
molar heat capacity ([3]; 34.25 K): 38.29 ± 0.37 J/K/mol
molar heat capacity ([3]; 35.69 K): 40.02 ± 0.37 J/K/mol
molar heat capacity ([3]; 37.25 K): 42.05 ± 0.39 J/K/mol
molar heat capacity ([3]; 38.95 K): 44.28 ± 0.41 J/K/mol
molar heat capacity ([3]; 40.79 K): 46.36 ± 0.42 J/K/mol
molar heat capacity ([3]; 42.67 K): 48.72 ± 0.43 J/K/mol
molar heat capacity ([3]; 44.41 K): 50.59 ± 0.45 J/K/mol
molar heat capacity ([3]; 46.25 K): 52.77 ± 0.47 J/K/mol
molar heat capacity ([3]; 48.19 K): 54.67 ± 0.47 J/K/mol
molar heat capacity ([3]; 50.08 K): 56.63 ± 0.49 J/K/mol
molar heat capacity ([3]; 51.93 K): 58.46 ± 0.5 J/K/mol
molar heat capacity ([3]; 53.83 K): 60.66 ± 0.52 J/K/mol
molar heat capacity ([3]; 55.82 K): 62.66 ± 0.53 J/K/mol
molar heat capacity ([3]; 57.81 K): 64.39 ± 0.54 J/K/mol
molar heat capacity ([3]; 59.76 K): 66.21 ± 0.56 J/K/mol
molar heat capacity ([3]; 61.73 K): 68.03 ± 0.56 J/K/mol
molar heat capacity ([3]; 63.72 K): 69.96 ± 0.58 J/K/mol
molar heat capacity ([3]; 65.71 K): 71.5 ± 0.59 J/K/mol
molar heat capacity ([3]; 67.67 K): 73.51 ± 0.61 J/K/mol
molar heat capacity ([3]; 69.76 K): 75.35 ± 0.61 J/K/mol
molar heat capacity ([3]; 72.08 K): 77.34 ± 0.63 J/K/mol
molar heat capacity ([3]; 74.55 K): 79.53 ± 0.65 J/K/mol
molar heat capacity ([3]; 76.99 K): 81.52 ± 0.66 J/K/mol
molar heat capacity ([3]; 79.43 K): 83.56 ± 0.67 J/K/mol
molar heat capacity ([3]; 81.9 K): 85.64 ± 0.67 J/K/mol
molar heat capacity ([3]; 84.37 K): 87.8 ± 0.67 J/K/mol
molar heat capacity ([3]; 86.86 K): 89.8 ± 0.75 J/K/mol
molar heat capacity ([3]; 89.34 K): 92.04 ± 0.75 J/K/mol
molar heat capacity ([3]; 91.79 K): 93.87 ± 0.92 J/K/mol
molar heat capacity ([3]; 94.27 K): 96.03 ± 0.92 J/K/mol
molar heat capacity ([3]; 96.74 K): 97.94 ± 0.92 J/K/mol
molar heat capacity ([3]; 99.23 K): 100.3 ± 0.92 J/K/mol
molar heat capacity ([3]; 99.86 K): 100.6 ± 0.92 J/K/mol
molar heat capacity ([3]; 101.72 K): 102.1 ± 0.92 J/K/mol
molar heat capacity ([3]; 101.89 K): 102.2 ± 0.92 J/K/mol
molar heat capacity ([3]; 103.96 K): 103.9 ± 0.92 J/K/mol
molar heat capacity ([3]; 104.22 K): 104.1 ± 1 J/K/mol
molar heat capacity ([3]; 106 K): 105.5 ± 1 J/K/mol
molar heat capacity ([3]; 108.09 K): 107.2 ± 1 J/K/mol
molar heat capacity ([3]; 110.22 K): 108.8 ± 1 J/K/mol
molar heat capacity ([3]; 112.32 K): 110.3 ± 1 J/K/mol
molar heat capacity ([3]; 114.47 K): 112.2 ± 1 J/K/mol
